How the values were obtained:
[1] = tested on: hepatocellular, pancreatic, and central nervous system tumors; settings: in vitro and in animal models; cited from earlier work
P388/S leukemia = experiment: cells; settings: Mus musculus, 72 h, read-out: IC50 (concentration at which growth (cell#) is reduced by 50%)
Method: (§1) A proliferation assay was performed to ascertain the toxicity of a combination of a famesyl protein transferase and lovastatin at various concentrations to a number of cancerous cell lines. The assay was also performed to ascertain the toxicity of the farnesyl protein transferase alone as a comparison against the combination.
(§2) Cell lines (Panc-1, Colon26, HT-29 Colon, H460 Lung, H-ras NIH 3T3 fibroblast, P388/ADR leukemia, and P388/S leukemia) were set up at various starting concentrations in 24- or 12-well dishes. Suspension cells were treated immediately; attached monolayer cells were allowed to attach for 24 hours prior to treatment. The cells were treated in one series of tests with lovastatin and solvent (DMSO); in another series of tests with a combination of lovastatin, solvent (DMSO) and the farnesyltransferase inhibitor, (S)-[1-{(4-benzyloxy-benzyl)-[(2-methyl-2-phenyl-propyl carbamoyl)-methyl]-carbamoyl}-2-(3H1-imidazol-4-yl)-ethyl]-carbamic acid benzyl ester (Compound A); and in a third series of cells were treated with only the farnesyltransferase inhibitor. After 72 hours of treatment, the cells (growing in 1 mL of medium) are trypsinized with warm (37 degrees celsius) trypsin-EDTA (0.5 mL for 1-2 minutes), agitated, rescued with 0.5 mL of warm (37) medium, then diluted in […] Isoton (isotonic saline) for a final volume of 10 mL, 0.5 mL are then counted on a Coulter cell counter.
(§3) The data for lovastatin treatment alone is relative to the DMSO-treated controls; the data for combination treatment is relative to the PFT inhibitor treatment alone samples.

Panc-1 = experiment: cells; settings: Homo sapiens, PANC-1, 72 h, read-out: IC50 (concentration at which growth (cell#) is reduced by 50%)
Method: as §1, §2, §3

HT-29 Colon = experiment: cells; settings: Homo sapiens, HT-29, 72 h, read-out: IC50 (concentration at which growth (cell#) is reduced by 50%)
Method: as §1, §2, §3

H460 Lung = experiment: cells; settings: Homo sapiens, NCI-H460, 72 h, read-out: IC50 (concentration at which growth (cell#) is reduced by 50%)
Method: as §1, §2, §3

P388/ADR leukemia = experiment: cells; settings: Mus musculus, 72 h, read-out: IC50 (concentration at which growth (cell#) is reduced by 50%)
Method: as §1, §2, §3

Colon26 = experiment: cells; settings: Mus musculus, Colon 26, 72 h, read-out: IC50 (concentration at which growth (cell#) is reduced by 50%)
Method: as §1, §2, §3

H-ras NIH 3T3 fibroblast = experiment: cells; settings: Mus musculus, NIH3T3, 72 h, read-out: IC50 (concentration at which growth (cell#) is reduced by 50%)
Method: as §1, §2, §3

[2] = tested on: mammary and salivary carcinomas; settings: daily administration; ras transgenic mice; cited from earlier work
[3] = tested on: human colon carcinoma xenografts; settings: 100 mg/kg; human colon carcinoma xenograft in nude mice; cited from earlier work
[4] = tested on: EJ-1 human bladder carcinoma; settings: 100 mg/kg; EJ-1 xenograft in nude mice; cited from earlier work
[5] = tested on: HT1080 human fibrosarcoma; settings: 100 mg/kg; HT1080 xenograft in nude mice; cited from earlier work
[6] = tested on: human lung carcinoma with K-ras mutation and p53 deletion; settings: nude mice; cited from earlier work

## CC[C@H](C)C(=O)O[C@H]1C[C@@H](C)C=C2C=C[C@H](C)[C@H](CC[C@@H]3C[C@@H](O)CC(=O)O3)[C@H]21 [Lovastatin, lovastatin]
[1]
  tumor growth: selectively inhibited tumor growth
P388/S leukemia
  IC50: 4 µM
Panc-1
  IC50: 18.8 µM
HT-29 Colon
  IC50: 11.4 µM
H460 Lung
  IC50: 5.5 µM
P388/ADR leukemia
  IC50: 10.7 µM
Colon26
  IC50: 1.2 µM
H-ras NIH 3T3 fibroblast
  IC50: 17.4 µM

## CC[C@H](C)[C@@H](CO[C@@H](Cc1ccccc1)C(=O)N[C@@H](CCS(C)(=O)=O)C(=O)OC(C)C)NC[C@@H](N)CS [L-744,832]
[2]
  tumor regression: caused tumor regression

## COC(=O)[C@H](CCSC)NC(=O)[C@H](/C=C\[C@@H](/C=C/[C@@H](N)CS)C(C)C)Cc1ccccc1 [B 1086]
[3]
  tumor growth: inhibit tumor growth
[4]
  tumor growth: inhibit tumor growth
[5]
  tumor growth: inhibit tumor growth

## CSCC[C@H](NC(=O)c1ccc(NC[C@@H](N)CS)cc1-c1ccccc1)C(=O)O [FT1276]
[6]
  tumor growth: selectively block tumor growth

Source: patent US6492410B1, “Combinations of protein farnesyltransferase and HMG CoA reductase inhibitors and their use to treat cancer” (Warner-Lambert Company, priority 1998, dated 2002)
